pIC50: −log10 of the molar value. Ends that are not written are not given here. Peptide text beside a SMILES is read from it.

The subject of one data set is glomerular injury. The conditions noted are these: intraperitoneal, rats; cited from earlier work.
The test system of data set [1] is vasoconstriction of the basilar artery. The conditions noted are these: intracisternal, canine subarachnoid hemorrhage model; cited from earlier work.
A further data set relates to ET-1 induced arrhythmia. The conditions noted are these: rats; cited from earlier work.
Data set [2] deals with renal vasoconstriction after renal ischemia. The note with it: anesthetized rats; cited from earlier work.
For data set [3], the system named is cerebral vasoconstriction after subarachnoid hemorrhage. The conditions noted are these: rats; cited from earlier work.
For data set [4], the system named is blood pressure. The note with it: orally administered; cited from earlier work.
Data set [5] has as its system endothelin receptor (ETA), rabbit renal artery vascular smooth muscle cells. The data set is described as follows: Endothelin Receptor Binding Assay-A (ERBA-A), intact cell binding of [125I]-ET-1. The note with it: [125I]-ET-1 25 pM. Here is the method:
The compounds of Formula I are valuable antagonists of endothelin. […] Thus, the compounds of Formula I were tested for their ability to inhibit [^125 I]-ET-1([^125 I]-Endothelin-1) binding in a receptor assay according to the following procedures: Endothelin Receptor Binding Assay-A (ERBA-A) Intact Cell Binding of [^125 I]-ET-1 The cells used were rabbit renal artery vascular smooth muscle cells grown in a 48-well dish (1 cm^2) (confluent cells). The assay buffer was a medium 199 containing Hanks salts and 25 mM Hepes buffer (Gibco 380-2350AJ), supplemented with penicillin/streptomycin/fungizone (0.5%) and bovine serum albumin (1 mg/mL). Amersham radioiodinated endothelin-1 [^125 I]-ET-1 was used at final concentration of 20,000 cpm/0.25 mL (25 pM). […] Second, remove the assay buffers, place the dish on ice, and add 150 μL of cold assay buffer described above to each well. Third, add […] each of cold [^125 I]-ET-1 and competing ligand to the solution (at the same time if possible). Next, place dish in a 37° C. water bath for about 2 hours and gently agitate the dish every 15 minutes. Discard the radioactive incubation mixture in the sink and wash wells 3 times with 1 mL of cold phosphate buffered saline. Last, add […] of 0.25 molar sodium hydroxide, agitate for 1 hour on a rotator, and then transfer the sodium hydroxide extract to gamma counting tubes and count the radioactivity.

The target in data set [6] is T1, endothelin receptor (ETB), rat cerebellar membranes (Rattus norvegicus, UniProt P21451).
T1 construct: thaw one aliquot of frozen rat cerebellar membranes (2 mg protein in 0.5 mL); from tissue; host or cells: rat cerebellum (membranes)
T1 sequence (P21451 27-442): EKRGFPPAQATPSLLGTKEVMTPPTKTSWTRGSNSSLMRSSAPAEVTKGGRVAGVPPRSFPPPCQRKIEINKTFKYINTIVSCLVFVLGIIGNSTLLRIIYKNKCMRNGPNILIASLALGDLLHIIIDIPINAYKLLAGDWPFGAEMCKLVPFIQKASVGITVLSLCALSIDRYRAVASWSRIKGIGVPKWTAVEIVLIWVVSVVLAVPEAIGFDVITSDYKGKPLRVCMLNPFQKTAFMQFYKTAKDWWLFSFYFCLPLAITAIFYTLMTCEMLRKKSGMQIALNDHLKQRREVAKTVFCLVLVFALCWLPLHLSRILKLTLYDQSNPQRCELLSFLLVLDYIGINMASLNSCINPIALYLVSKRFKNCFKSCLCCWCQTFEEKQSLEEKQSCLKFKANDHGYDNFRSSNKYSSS
Nature of the data set: Endothelin Receptor Binding Assay-B (ERBA-B), [125I]-ET-1 binding in rat cerebellar membranes. The note with it: [125I]-ET-1 25 pM, read-out: ERRA-B IC50. How it is done:
Endothelin Receptor Binding Assay-B (ERBA-B) [^125 I]-ET-1 Binding in Rat Cerebellar Membranes
The tissue is made up of 20 mM tris(hydroxymethyl)aminomethane hydrochloride (Trizma) buffer, 2 mM ethylenediaminetetra acetate, 100 μM phenylmethylsulfonyl fluoride.
First, thaw one aliquot of frozen rat cerebellar membranes (2 mg protein in 0.5 mL). Next, add 0.5 mL membrane aliquot to 4.5 mL cold tissue buffer, polytron at 7,500 revolutions per minute for 10 seconds. Finally, dilute tissue suspension 1/100 (0.1 mL suspension+9.9 mL tissue buffer), polytron again, and place ice.
Medium 199 with Hank's salts plus 25 mM Hepes+1 mg/mL bovine serum albumin.
Amersham [^125 I]-ET-1 (aliquots of 2×10^6 cpm per […] aliquot of [^125 I]-ET-1 with 5.2 mL dilution buffer, place on ice until use (final concentration will be 20,000 cpm per tube, or 25 pM).
Add 50 μL each of cold [^125 ]-ET-1 and competing ligand to tubes on ice. Mix in 150 μL of tissue to each tube, vortex briefly, then tap to force all liquids to bottom (total assay volume=250 μL). Then place the tubes in a 37° C. water bath for 2 hours.
Add 2.5 mL cold wash buffer (50 mM Trizma buffer) to each tube, filter, and then wash tube with additional 2.5 mL wash buffer and add to filter. Finally, wash filters with an additional 2.5 mL of cold wash buffer.
Count filters for radioactivity in gamma counter.

Data set [7] deals with CaCO-2 cells (human colon adenocarcinoma cell line). The format is in vitro ADME. How it is done:
For experiments, the cells were counted, then diluted to 2.5×10^5 cells/mL for planting (400 μL per well) onto Snapwell culture membranes with 2.5 mL media in the lower chamber. Media in the […] was changed every 2 to 3 days. Cells used for this series of experiments were between passage 38 and 91. 2-[N-Morpholino]ethanesulfonic acid (MES)+25 mM glucose was used as incubation buffer for all the experiments and all incubation solutions were prepared to an osmotic pressure of 280 to 300 milliosmoles. The concentration of the endothelin antagonist being studied (for all experiments) was 100 μM and another endothelin antagonist with similar HPLC characteristics (retention time 2-3 minutes from the ET antagonist being studied, and similar chemical characteristics) was used at a concentration of 25 μM as an internal standard to compensate for any injection error. Prior to the start of the experiment, the transepithelial electrical resistance (TEER) was measured for each Snapwell (in media) at three points of the membrane. […] The membranes were washed by swirling in 0.9% normal saline and mounted in the pretreated diffusion chambers [0.1 mg/mL human serum albumin for 1 to 2 hours at 37° C. with O2 bubbling followed by air drying at 37° C. overnight, then with 4.5 to 5.0 mL dosing solution (MES+glucose+^14 C-PEG-4000 (5000 dpm/50 μL)+drug) for 5 minutes and 4.5 to 5.0 mL MES+glucose rinse just before the experiment.] The apical (donor) side was filled with 4.5 to 5.0 mL dosing solution, the basolateral (receiver) side with MES+glucose. Samples were removed from the donor and receiver compartments over the course of the experiment and analyzed for ^14 C-PEG 4000 (cell membrane integrity) and endothelin content.

Data set [8] has as its system ET-1 induced bronchoconstriction and tracheal smooth muscle contraction. The conditions noted are these: allergic sheep; cited from earlier work.
The subject of another data set is endotoxic shock. The note with it: mouse endotoxic shock; cited from earlier work.
Data set [9] concerns ET-1 induced pressor response. The conditions noted are these: conscious rats; cited from earlier work.
For data set [10], the system named is blood pressure. The conditions noted are these: intravenous infusion, stroke prone spontaneous hypertensive rats; cited from earlier work.
Data set [11] concerns acute hypoxia induced pulmonary hypertension. The conditions noted are these: in vivo; cited from earlier work.
For data set [12], the system named is ET-1 induced vasoconstriction. The conditions noted are these: i.v.; cited from earlier work.
The subject of data set [13] is renal vascular resistance. The note with it: i.v.; cited from earlier work.
The next data set has as its system acute CsA toxicity. The note with it: rat model; cited from earlier work.
Data set [14] has as its system ischemic acute renal failure. The note with it: i.v., cited from earlier work.
The test system of a further data set is ET receptor. The note with it: cited from earlier work.
Data set [15] deals with vasoconstriction after subarachnoid hemorrhage. The conditions noted are these: cited from earlier work.

As for FR 139317, the “permeability to proteins, glomerular injury, renal function” value with glomerular injury was “reduced abnormal permeability to proteins and limited glomerular injury and prevented renal function deterioration”. For the same molecule, the “vasoconstriction of the basilar artery” value in data set [1] is “significantly reduced the vasoconstriction of the basilar artery”. Besides, in the data set with ET-1 induced arrhythmia, the ET-1 induced arrhythmia entry is “suppressed”.
`COc1cccc(Oc2c(NS(=O)(=O)c3ccc(C(C)(C)C)cc3)ncnc2OCCO)c1` [Ro 46-2005]: the “renal vasoconstriction after renal ischemia” value in data set [2] is given as “protective effect”. The “cerebral vasoconstriction after subarachnoid hemorrhage” value in data set [3] is “dramatically reduced cerebral vasoconstriction”. In addition, the antihypertensive effect entry with blood pressure [4] was “marked antihypertensive effect with a reasonably long duration”.
In the case of `CC[C@H](C)[C@H](NC(=O)[C@@H](NC(=O)[C@@H](CC(=O)O)NC(=O)[C@H](CC(C)C)NC(=O)[C@H](NC(C)=O)C1c2ccccc2CCc2ccccc21)[C@@H](C)CC)C(=O)N[C@@H](Cc1c[nH]c2ccccc12)C(=O)O` [Example 16, Ac-D-Bhg-Leu-D-Asp-Ile-Ile-Trp] (HELM PEPTIDE1{[ac].[O=C([C@H](N[*:1])C1c2ccccc2CCc2ccccc21)[*:2]].L.[dD].I.I.W}$$$$V2.0), the figures for the pIC50 in data set [5] and in data set [6] were 6.85 and 6.40, respectively. The “absorption in the gut suggested by CaCO-2 values” in data set [7] is given as 5-10%.
As to `CC(C)C[C@@H]1NC(=O)[C@@H](C(C)C)NC(=O)[C@@H]2CCCN2C(=O)[C@@H](CC(=O)O)NC(=O)[C@@H](Cc2c[nH]c3ccccc23)NC1=O` [BQ-123] (HELM PEPTIDE1{L.[dW].[dD].P.[dV]}$PEPTIDE1,PEPTIDE1,1:R1-5:R2$$$V2.0), the “ET-1 induced bronchoconstriction and tracheal smooth muscle contraction” value in [8] was “block ET-1 induced bronchoconstriction and tracheal smooth muscle contraction”. For the same molecule, the survival rate entry with endotoxic shock is given as “significantly increased the survival rate”. For the same molecule, the “ET-1 induced pressor response” value in [9] was “effective in antagonizing the ET-1 induced pressor response”. For the same molecule, the blood pressure entry with blood pressure [10] was “decreased blood pressure significantly”. Further, the “prevention of acute hypoxia induced pulmonary hypertension” value in data set [11] is given as “effective in the prevention of acute hypoxia induced pulmonary hypertension”. Moreover, the “ET-1 induced vasoconstriction in rabbit retinal arteries” value in data set [12] is recorded as “blocked”. The “ET-1 induced renal vascular resistance in rats” value in data set [13] was “blocked”. In addition, in the data set on acute CsA toxicity, the “acute CsA toxicity” value is recorded as “suppressed”. In [14] (early phase of ischemic acute renal failure in rats), the “mitochondrial [Ca2+] accumulation” value is “prevents the mitochondrial [Ca^2+ ] accumulation”. The “post-ischemic degeneration of proximal tubular cells” value in [14] (rats) is “protects proximal tubular cells from post-ischemic degeneration”.
Consider “ET[1-20]: ET-1 lacking the C-terminal amino acid Trp-21 (CSCSSLMDKECVYFCHLDII; ends and bridges not checked; cysteine pairing not given here; UniProt P05305 53-72, looked up, fragment)”, for which the “functional activity relative to ET-1” value with ET receptor is “approximately 1000 fold less”.
`COc1ccccc1Oc1c(NS(=O)(=O)c2ccc(C(C)(C)C)cc2)nc(-c2ncccn2)nc1OCCO` [Ro 47-0203]: the “blood brain barrier passage” value in [15] (inferred from the rabbit subarachnoid hemorrhage model) is reported as “crosses the blood brain barrier”. Besides, the reversal of vasoconstriction result in data set [15] (rabbit subarachnoid hemorrhage model) was “effective in a rabbit subarachnoid hemorrhage model in reversing vasoconstriction”.

One may read the pIC50 as the negative decadic logarithm of the IC50, by convention in mol/L.

Values taken from US5550110A, “Endothelin Antagonists II” (Warner-Lambert Company, priority 1994, dated 1996).
